The nature of data set [1]: Hepatocyte metabolic stability experiment (HMS), R. In kind it is in vitro ADME. As to conditions: rat, R hepatocytes, read-out: HMS CLint(liver). The protocol: (§1) Experimental operations: 198 μL of hepatocyte suspension (0.51×10^6 cells/mL) was added to the preheated incubation plate, and 198 μL of culture medium without hepatocytes was added to T0-MC and T120-MC incubation plates for the culture medium control group, and all incubation plates were pre-incubated for 10 minutes in a 37° C. incubator. Then 2 μL of the working solution of the test and control compounds were added and mixed well, and the incubation plate was immediately put into the plate shaker in the incubator, the rotation speed was adjusted to about 650 rpm, and the timer and the reaction were started. 2 duplicate samples for each compound were prepared at each time point. Incubation conditions: 37° C., saturated humidity, and containing 5% CO2. In the test system, the final concentration of the test compound was 1 μM, the final concentration of the control compound was 3 μM, the final concentration of hepatocytes was 0.5×10^6 cells/mL, and the final concentration of the total organic solvent was 0.96%, of which the final concentration of DMSO was 0.1%. […] All samples were mixed and analyzed by LC-MS/MS method. […]

For data set [2], the system named is plasma proteins. Nature of the data set: Plasma protein binding experiment (PPB), R. In kind it is in vitro ADME, rat. The settings on record: 2 μM, 4 hours dialysis. How it is done: (§2) Experimental operation: 995 μL of blank plasma of each genus was taken, 5 μL of working solution of test compound (400 μM) or working solution of warfarin (400 μM) was added, so that the final concentrations of the test compound and warfarin in the plasma sample was 2 μM. The sample was mixed thoroughly. The final concentration of the organic phase DMSO was 0.5%; 50 μL of plasma samples of the test compound and warfarin were pipetted into the sample receiving plate (three parallels), and the corresponding volume of the corresponding blank plasma or buffer was immediately added so that the final volume of each sample well was 100 μL, with a volume ratio of 1:1 for plasma: dialysis buffer, and then 500 μL of stop solution was added to these samples, and these samples would be used as a T0 sample for the recovery and stability determination. […] All samples were analyzed by LC/MS/MS after protein precipitation, and the protein binding rate and recovery rate were calculated by the formula: % Unbound=100*F/T, % Bound=100−% Unbound, % Recovery 100*(F+T) T0 (where F was the peak area ratio of the compound in the dialysate after 4 hours of dialysis; T was the peak area ratio of the compound in the plasma after 4 hours of dialysis, and T0 was the peak area ratio of the compound in the plasma sample at zero time).

Data set [3] is described as follows: Hepatocyte metabolic stability experiment (HMS), D. In kind it is in vitro ADME. As to conditions: dog, D hepatocytes, read-out: HMS CLint(liver). The protocol: as §1
The test system of data set [4] is plasma proteins. Nature of the data set: Plasma protein binding experiment (PPB), C. In kind it is in vitro ADME, cynomolgus monkey. As to conditions: 2 μM, 4 hours dialysis. How it is done:
as §2

Data set [5] relates to plasma proteins. Description: Plasma protein binding experiment (PPB), D. In kind it is in vitro ADME, dog. As to conditions: 2 μM, 4 hours dialysis. How it is done:
as §2

The next data set concerns the target BTK kinase (Homo sapiens (Human), UniProt Q06187). Description: BTK kinase experiment (ADP-Glo). In kind it is biochemical. The settings on record: 2 μM ATP, PolyE4Y1 substrate, 30 minutes pre-incubation. The protocol:
BTK kinase, PolyE4Y1 substrate and Kinase assay buffer III were purchased from Signalchem; ADP-Glo Kinase Assay was purchased from Promega; Nivo multi-label analyzer (PerkinElmer).
1× buffer preparation (which was prepared and used immediately): Kinase assay buffer III was diluted with ddH2O to 1× assay buffer for later use.
The compound to be tested was diluted with 100% DMSO to 10 μM as the first concentration, and followed by a 5-fold dilution to the 8th concentration using a multi-channel pipette, i.e., it was diluted from 10 μM to 0.128 nM.
Each gradient of the compound to be tested was diluted into a working solution with 5% DMSO using 1× buffer, 1 μL/well was added to the corresponding well, and a double-replicate well experiment was set up. 2 μL of BTK enzyme (4 ng) was add to each well and incubating at 25° C. for 30 minutes. After the incubation was completed, 2 μL of a mixture of substrate and ATP (2 μM ATP, 0.2 μg/μL PolyE4Y1) was added to each well and incubating at 25° C. for 120 minutes. At this point, the final concentration gradient of the compound was diluted from 100 nM to 0.00128 nM. After the reaction was completed, 5 μL of ADP-Glo reagent was added to each well, and the reaction continued at 25° C. for 40 minutes. After the reaction was completed, 10 μL of kinase detection reagent was added to each well. After reacting at 25° C. for 30 minutes, PerkinElmer Nivo multi-label analyzer was used to read the chemiluminescence, and the integration time was 0.5 seconds.
Raw data was converted into inhibition rate using the equation: (Sample−Min)/(Max−Min)*100%. The IC50 value could then be derived by performing a curve fit using four-parameter (which was obtained using the “log(inhibitor) vs. response-Variable slope” mode in GraphPad Prism).

Data set [6] deals with experimental autoimmune encephalomyelitis (EAE) model. Nature of the data set: In vivo efficacy of EAE in C57BL/6 mice. As to conditions: C57BL/6 female mice, 5 mg/kg. How it is done:
Experimental methods: Experimental autoimmune encephalomyelitis (EAE) model was established in 10-week-old C57BL/6 female mice, and the animals were randomly divided into two groups according to their weight, of which, group G1 was a pure modeling group with 5 animals, and group G2 was a subject 002 group with 7 animals. On day 0, 100 μL of myelin oligodendrocyte glycoprotein (MOG) emulsion was injected subcutaneously into the hind flank of each animal in the G1-G2 group at two points, totaling 200 μL. After 2 hours and 48 hours, respectively, 200 μL of pertussis toxin (PTX) was injected subcutaneously into the animals of groups G1-G2. The in vivo experiment was finished on day 22, and no treatment was given to group G1 from day 0; G2 group was administered 5 mg/kg of subject 002 once a day for […]. The animals in each group were weighed and scored (including tail weakness, claudication, hind limb paralysis, hind limb paralysis and other symptoms) every 2 days. [table] [table]

Structures are written as SMILES.

Chain of BTK kinase (Q06187 whole entry): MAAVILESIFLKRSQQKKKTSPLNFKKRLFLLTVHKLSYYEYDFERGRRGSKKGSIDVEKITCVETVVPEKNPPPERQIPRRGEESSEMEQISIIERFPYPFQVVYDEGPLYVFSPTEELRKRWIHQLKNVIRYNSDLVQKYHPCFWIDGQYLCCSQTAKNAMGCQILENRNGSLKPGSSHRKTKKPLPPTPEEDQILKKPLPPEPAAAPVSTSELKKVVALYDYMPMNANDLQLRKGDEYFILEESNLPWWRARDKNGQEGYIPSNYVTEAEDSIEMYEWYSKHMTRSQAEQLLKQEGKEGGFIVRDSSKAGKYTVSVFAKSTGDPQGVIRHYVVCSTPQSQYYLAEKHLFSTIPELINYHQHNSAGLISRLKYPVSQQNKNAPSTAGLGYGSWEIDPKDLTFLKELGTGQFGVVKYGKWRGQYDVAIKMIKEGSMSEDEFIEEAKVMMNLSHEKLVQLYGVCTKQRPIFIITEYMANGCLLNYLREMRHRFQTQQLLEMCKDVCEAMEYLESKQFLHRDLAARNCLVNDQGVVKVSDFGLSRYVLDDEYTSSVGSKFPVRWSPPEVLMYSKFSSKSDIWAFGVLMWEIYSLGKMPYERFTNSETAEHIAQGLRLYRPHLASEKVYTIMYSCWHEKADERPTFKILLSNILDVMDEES

A word on the IC50: it is the concentration at which inhibition is half-maximal. Low readings indicate greater potency in that assay, high ones weaker potency in that assay. As for `Nc1nccc2c1n(-c1ccc(Oc3ccccc3)cc1)c(=O)n2[C@@H]1CCCN(C(=O)/C=C/CF)C1` [Compound 002], the CLint scaled at 1 μM in data set [1] is 171 mL/min/kg; in data set [3], 187 mL/min/kg. The “Unbound PPB” value in the data set on plasma proteins [2] turned out to be 1.3%; in the data set with plasma proteins [4], 4.1%; with plasma proteins [5], 4.3%. In addition, the IC50 on BTK kinase was found to be 1.65 nM. In addition, in data set [6] (QD, compared with the modeling group), the “efficacy in EAE model / severity of the disease (in words)” value is “effective in reducing the severity of the disease”. The “Scores of animals on day 20 after administration” value in data set [6] (EAE model, QD × 29, moulding group 1.8) is on record as 0.4.

These data come from patent publication US20240217973A1, “IMIDAZOPYRIDINE COMPOUNDS AND USE THEREOF” (MEDSHINE DISCOVERY INC., priority 2021, published 2024).
